Experiment [1] deals with PIK3CD (Human) (UniProt O00329). The experiment is described as follows: Cell-Based Assay. To be noted: jurkat.
The target in experiment [2] is PIK3CB (Human) (UniProt P42338). Kind of experiment: Cell-Based Assay. To be noted: jurkat.
Experiment [3] has as its target PIK3CA (human) (UniProt P42336). The experiment is described as follows: Cell-Based Assay. To be noted: jurkat.
Experiment [4] deals with PIK3CD (Human) (UniProt O00329). Kind of experiment: Enzyme Assay.
Experiment [5] deals with PIK3CA (human), P42336 [I800L]. The experiment is described as follows: Enzyme Assay.
Chain of PIK3CA (human), P42336 [I800L] (P42336 whole entry I800L, looked up): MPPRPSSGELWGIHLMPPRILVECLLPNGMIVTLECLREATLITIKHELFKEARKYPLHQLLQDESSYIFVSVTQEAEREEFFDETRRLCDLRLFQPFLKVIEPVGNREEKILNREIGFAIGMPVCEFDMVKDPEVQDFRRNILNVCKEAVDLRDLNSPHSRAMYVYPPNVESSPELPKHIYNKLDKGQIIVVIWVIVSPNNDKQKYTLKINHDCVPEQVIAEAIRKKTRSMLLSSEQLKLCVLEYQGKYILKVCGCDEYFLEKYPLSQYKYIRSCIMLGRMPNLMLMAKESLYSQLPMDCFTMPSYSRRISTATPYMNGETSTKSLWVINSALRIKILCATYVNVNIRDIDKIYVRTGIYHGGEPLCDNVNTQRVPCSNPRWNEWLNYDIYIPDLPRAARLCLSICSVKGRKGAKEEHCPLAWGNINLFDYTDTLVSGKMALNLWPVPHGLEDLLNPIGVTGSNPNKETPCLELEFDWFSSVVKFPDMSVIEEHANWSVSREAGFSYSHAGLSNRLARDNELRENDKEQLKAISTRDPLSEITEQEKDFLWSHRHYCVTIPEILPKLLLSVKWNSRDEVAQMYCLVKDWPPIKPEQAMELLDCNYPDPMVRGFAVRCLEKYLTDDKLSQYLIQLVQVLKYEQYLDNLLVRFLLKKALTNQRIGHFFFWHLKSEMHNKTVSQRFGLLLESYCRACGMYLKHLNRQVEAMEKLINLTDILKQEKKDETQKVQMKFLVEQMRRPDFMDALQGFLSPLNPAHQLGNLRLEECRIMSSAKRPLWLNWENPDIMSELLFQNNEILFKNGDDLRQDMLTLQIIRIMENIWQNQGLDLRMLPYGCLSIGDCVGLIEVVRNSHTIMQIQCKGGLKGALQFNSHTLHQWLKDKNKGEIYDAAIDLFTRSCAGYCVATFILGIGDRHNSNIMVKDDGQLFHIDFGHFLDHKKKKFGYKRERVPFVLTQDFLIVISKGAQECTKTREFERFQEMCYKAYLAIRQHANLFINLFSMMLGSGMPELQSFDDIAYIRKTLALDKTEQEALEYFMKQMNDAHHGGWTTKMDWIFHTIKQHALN
The target in experiment [6] is PIK3CB (Human) (UniProt P42338). The experiment is described as follows: Enzyme Assay.
In experiment [7] the target is PIK3CA (human) (UniProt P42336). The experiment is described as follows: Enzyme Assay.
Chain of PIK3CA (human) (P42336 whole entry, looked up): as the sequence (P42336 whole entry I800L, looked up) above, with L800I counted along it
The next experiment addresses PIK3CG (human) (UniProt P48736). The experiment is described as follows: Enzyme Assay.
For experiment [8], the target named is PIK3CB (Human) (UniProt P42338). Kind of experiment: Cell-Based Assay. To be noted: jurkat. This is another data set of the same source.

The record followed here is the Kinase Knowledgebase extract (Sharma et al. 2016).

“And” between values parts separate entries of the source, which are not always exact repeats. Equal entries are not always repeated.

Chain of PIK3CD (Human) (O00329 whole entry, looked up): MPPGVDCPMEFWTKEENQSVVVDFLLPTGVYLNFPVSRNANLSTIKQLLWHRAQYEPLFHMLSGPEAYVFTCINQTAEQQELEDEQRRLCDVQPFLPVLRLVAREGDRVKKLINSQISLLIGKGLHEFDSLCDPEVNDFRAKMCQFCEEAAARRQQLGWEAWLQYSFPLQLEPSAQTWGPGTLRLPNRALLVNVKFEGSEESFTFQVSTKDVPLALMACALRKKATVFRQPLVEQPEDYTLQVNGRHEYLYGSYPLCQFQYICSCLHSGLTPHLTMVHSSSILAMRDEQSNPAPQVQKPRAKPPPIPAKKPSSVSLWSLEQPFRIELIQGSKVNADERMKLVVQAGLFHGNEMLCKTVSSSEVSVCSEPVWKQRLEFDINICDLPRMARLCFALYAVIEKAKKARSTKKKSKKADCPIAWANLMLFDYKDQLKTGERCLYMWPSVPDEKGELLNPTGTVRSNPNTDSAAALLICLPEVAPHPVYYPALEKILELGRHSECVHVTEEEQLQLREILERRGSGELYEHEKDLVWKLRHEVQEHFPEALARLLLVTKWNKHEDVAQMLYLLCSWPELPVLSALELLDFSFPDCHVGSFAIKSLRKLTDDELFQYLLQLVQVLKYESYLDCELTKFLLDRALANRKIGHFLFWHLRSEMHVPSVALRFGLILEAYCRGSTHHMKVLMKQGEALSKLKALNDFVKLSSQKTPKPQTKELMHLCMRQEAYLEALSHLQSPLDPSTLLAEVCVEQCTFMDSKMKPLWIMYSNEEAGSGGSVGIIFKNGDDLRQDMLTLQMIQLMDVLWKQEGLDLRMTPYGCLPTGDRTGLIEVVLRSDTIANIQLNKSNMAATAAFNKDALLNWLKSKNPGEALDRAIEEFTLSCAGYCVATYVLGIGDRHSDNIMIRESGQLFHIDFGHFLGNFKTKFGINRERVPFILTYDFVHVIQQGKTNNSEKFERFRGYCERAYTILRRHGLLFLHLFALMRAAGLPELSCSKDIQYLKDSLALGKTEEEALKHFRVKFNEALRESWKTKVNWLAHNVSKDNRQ
Chain of PIK3CB (Human) (P42338 whole entry, looked up): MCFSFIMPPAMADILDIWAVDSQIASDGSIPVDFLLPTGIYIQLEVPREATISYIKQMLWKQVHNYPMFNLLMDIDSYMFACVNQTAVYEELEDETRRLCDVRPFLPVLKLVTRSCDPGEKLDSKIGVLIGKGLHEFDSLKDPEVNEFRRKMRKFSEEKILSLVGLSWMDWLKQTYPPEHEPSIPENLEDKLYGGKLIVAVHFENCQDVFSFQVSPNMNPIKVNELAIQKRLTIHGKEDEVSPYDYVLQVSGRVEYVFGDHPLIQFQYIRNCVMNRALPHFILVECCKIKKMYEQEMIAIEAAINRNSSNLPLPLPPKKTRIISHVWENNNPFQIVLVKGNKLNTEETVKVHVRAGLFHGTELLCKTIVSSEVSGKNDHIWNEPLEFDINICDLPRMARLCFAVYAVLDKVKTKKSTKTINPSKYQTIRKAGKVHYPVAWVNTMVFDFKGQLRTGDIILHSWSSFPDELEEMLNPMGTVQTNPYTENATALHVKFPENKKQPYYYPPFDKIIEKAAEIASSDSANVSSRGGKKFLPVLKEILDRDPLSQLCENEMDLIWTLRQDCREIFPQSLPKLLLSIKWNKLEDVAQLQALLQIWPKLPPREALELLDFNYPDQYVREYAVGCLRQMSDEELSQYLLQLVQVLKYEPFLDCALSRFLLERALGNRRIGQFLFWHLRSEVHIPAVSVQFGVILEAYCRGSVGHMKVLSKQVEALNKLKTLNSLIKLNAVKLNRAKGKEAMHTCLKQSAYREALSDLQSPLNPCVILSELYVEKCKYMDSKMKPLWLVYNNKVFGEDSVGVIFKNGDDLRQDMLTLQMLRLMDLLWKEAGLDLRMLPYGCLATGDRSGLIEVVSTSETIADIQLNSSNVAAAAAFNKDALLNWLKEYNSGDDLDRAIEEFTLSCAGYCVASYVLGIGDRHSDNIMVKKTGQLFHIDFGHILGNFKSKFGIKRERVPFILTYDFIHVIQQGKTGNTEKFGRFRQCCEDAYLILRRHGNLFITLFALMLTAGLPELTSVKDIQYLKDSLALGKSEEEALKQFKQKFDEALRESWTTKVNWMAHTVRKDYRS
Chain of PIK3CG (human) (P48736 whole entry, looked up): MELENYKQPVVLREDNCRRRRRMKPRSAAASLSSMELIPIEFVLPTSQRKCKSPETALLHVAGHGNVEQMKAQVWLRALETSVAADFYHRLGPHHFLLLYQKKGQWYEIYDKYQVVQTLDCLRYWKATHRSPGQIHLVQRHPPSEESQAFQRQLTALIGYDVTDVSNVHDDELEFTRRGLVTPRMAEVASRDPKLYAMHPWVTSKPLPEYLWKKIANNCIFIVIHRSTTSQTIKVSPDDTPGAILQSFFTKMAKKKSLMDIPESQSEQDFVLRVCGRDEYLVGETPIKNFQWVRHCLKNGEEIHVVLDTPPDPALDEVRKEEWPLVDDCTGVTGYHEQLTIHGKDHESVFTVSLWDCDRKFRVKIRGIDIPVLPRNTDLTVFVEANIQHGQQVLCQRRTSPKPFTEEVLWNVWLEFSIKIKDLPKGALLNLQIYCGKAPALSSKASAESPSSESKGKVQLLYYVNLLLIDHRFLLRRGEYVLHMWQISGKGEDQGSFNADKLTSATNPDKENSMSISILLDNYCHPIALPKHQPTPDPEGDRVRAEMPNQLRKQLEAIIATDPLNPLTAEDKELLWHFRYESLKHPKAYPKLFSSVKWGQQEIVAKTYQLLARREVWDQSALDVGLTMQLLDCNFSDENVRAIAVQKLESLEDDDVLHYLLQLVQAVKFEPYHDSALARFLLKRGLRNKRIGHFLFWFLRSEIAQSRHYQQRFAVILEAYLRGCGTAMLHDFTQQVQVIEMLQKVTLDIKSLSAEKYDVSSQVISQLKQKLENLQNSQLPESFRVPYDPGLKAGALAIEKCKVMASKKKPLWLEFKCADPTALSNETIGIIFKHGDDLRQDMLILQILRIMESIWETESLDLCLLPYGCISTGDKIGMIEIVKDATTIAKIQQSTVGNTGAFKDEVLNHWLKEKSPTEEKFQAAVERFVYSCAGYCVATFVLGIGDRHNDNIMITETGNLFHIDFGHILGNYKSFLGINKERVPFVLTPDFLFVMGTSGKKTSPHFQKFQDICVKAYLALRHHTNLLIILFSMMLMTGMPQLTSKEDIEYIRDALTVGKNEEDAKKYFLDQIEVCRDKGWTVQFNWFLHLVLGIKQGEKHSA

As a reminder, the IC50 is the concentration that inhibits the measured activity by half. A lower IC50 goes with inhibition by little substance. As a reminder, the Kd is the equilibrium constant for the complex coming apart. Low readings indicate a tighter complex, high ones a looser complex. With `COC(=O)Nc1ccc(-c2nc(N3CCOCC3)c3cnn(C4CCN(C(=O)OC)CC4)c3n2)cc1`, the IC50 was 3300 nM and 980 nM on PIK3CD (Human) [1]; 10000 nM at PIK3CB (Human) [2]; 1200 nM against PIK3CA (human) [3]; 1290 nM at PIK3CD (Human) [4]; over 12000 nM against PIK3CB (Human) [6]; 886 nM against PIK3CA (human) [7]. For the same molecule, the figures for the IC50 at PIK3CG (human) and against PIK3CB (Human) [8] were 1870 nM and 9200 nM, respectively. Further, the Kd in [5] stood at 190 nM; on PIK3CA (human) [7], 140 nM.
